Entries after “also recorded” stand apart in the source; their conditions may differ. Residues, ends and D or L forms follow the SMILES beside them. *: point of attachment. Cbz = O=C(OCc1ccccc1)*; CH2F = FC*
What was measured:
[1] = system: mouse bone marrow derived dendritic cells (BMDC); assay: IL-1β release / inflammasome activation in infected BMDC; type: cell-based; settings: MOI=20, 6 hours; for IL-1β production/release in S. aureus infected BMDC: MCC950 10 μM, Cytochalasin D 5 μM, ZM241385 10 μM
Method: (§1) Bone marrow cells extracted from femur of 8-12 weeks old female BALB/c mice were culture in RPMI-1640 medium supplemented with L-glutamine, 10% heat inactivated-FBS, 1×penicillin/streptomycin, 10 mM HEPES, 50 μM-β mercaptoethanol, 20 ng/ml mGM-CSF (PeproTech) for up to 7 days differentiation.
One day before bacterial infection experiments, S. aureus strains were inoculated and cultured with BHI broth for overnight. Next day, overnight culture of bacteria strains were sub-cultured in fresh BHI broth at a dilution of 1:100 and grown at 37° C. Following 3 hours of culturing, S. aureus were harvested and washed for two to three times in cold PBS by centrifugation. Finally, S. aureus strains were diluted with desired volume of PBS, yielding an OD600 of 0.5 (1×10^8 CFU/ml), and further centrifuged and resuspended at desired bacterial concentration. The number of bacteria was determined by serial dilution and colony formation on BHI agar plates. Mammalian cells were plated in 24-well plates at a number of 4×10^5 per well and infected with S. aureus strains in antibiotic free medium at the indicated MOI.
(§2) Culture supernatants of relevant cells were collected and centrifuged at 13000 rpm for 4 min to get rid of cell debris and bacteria. Levels of LDH in culture supernatants were measured by CytoTox 96 Non-Radioactive Cytotoxicity Assay kit (Promega). Cell viability was measured by the CellTiter Glo Luminescent Cell Viability Assay (Promega). ELISA assay was conducted according manufactures' instructions.
For detection of cleaved form of caspase-1, cell culture supernatants were precipitated by methanol-chloroform method. Briefly, supernatant was mixed with an equal volume of methanol and 0.25 volumes of chloroform, vortexed and centrifuge for 15 min at 20000 g. The upper phase was discarded and the interphase was mixed with methanol. After centrifugation for 5 min at 20000 g, the pellet was resuspended in 2×SDS-PAGE sample buffer and boiled for 5 min at 100° C. Protein samples were separated by 15% SDS-PAGE gels and were transferred onto PVDF membranes. Total cell lysates lysed by RIPA buffer (50 mM Tris-Cl, pH 7.4, 150 mM NaCl, 1% Triton X-100, 0.1% SDS, 1% sodium deoxycholate and 0.5 mM EDTA) supplemented with 1× protease inhibitor cocktail (Roche) were boiled for 5 min at 100° C. Lysate aliquots were separated by SDS-PAGE gels and transferred onto PVDF membranes. Blots were probed with primary antibody: rabbit anti-caspase-1 (1:1000 dilution, 179515 from Abcam, USA), mouse anti-β actin (1:5000 dilution, A5316 from Sigma). Anti-rabbit or mouse antibodies conjugated to HRP were used as secondary reagents.

[2] = system: BALB/c mice; assay: Th17 response in inhibitor-pretreated mice infected with wild type S. aureus; type: in vivo; settings: splenocytes re-stimulated MOI=5, 4 days
Method: Protocol for harvest and calculation of wild type and variant S. aureus strains was the same as described above. To induce systemic blood infection model of S. aureus in FIG. 1, 200 ul of bacterial suspension (1×10^7 CFU) was administered intravenously into naïve 6-wk-old female BALB/c mice. To establish re-infection model in FIG. 5, mice were intraperitoneally infected with WT S. aureus (USA300), adsA mutant strain or WT S. aureus (USA300)/adsA mutant strain (4×10^7 CFU) for a total of 3 times at 7 days interval. After 14 days convalescent period, mice were re-challenged with lethal dose of WT USA300 S. aureus (4×10^7 CFU) or sublethal dose of WT USA300 S. aureus (2×10^7 CFU). Upon bacterial infection, health conditions of mice were frequently monitored in compliance with humane end points (HEP) form. To measure staphylococcal burden in blood, after 2 h of i.v. infection, mice were anaesthetized by intraperitoneal injection of 80-120 mg ketamine and 3-6 mg xylazine per kilogram of body weight and blood was collected via tail vein. Blood samples were incubated on ice in 0.5% saponin/PBS for lysis of host cells. Later on, serial dilutions were performed on BHI agar plates for colony formation. To enumerate bacteria in tissues, mice were euthanized by CO2 inhalation, organs including lungs, spleens and kidneys were harvested and homogenized in 1% Triton X-100/PBS. Aliquots of homogenates were serially diluted and spread on BHI agar plates for colony formation. For histopathology, kidneys were incubated in 4% paraformaldehyde (PFA) at room temperature for 24 h. Tissues were embedded in paraffin, thin sectioned, stained with hematoxylin-eosin, and examined by microscopy.
Animals were sacrificed at indicated time points in re-infection model. Spleens were harvested and grinded for cells suspension. After centrifugation, splenocytes were experienced red blood cell lysing, washes and filtering, and single cells suspension was cultured in RPMI-1640 media supplemented with 10% FBS, 100 U/ml penicillin and […]. […]

[3] = system: HMDM; assay: Cell viability assay of infected HMDM; type: cell-based, human; settings: MOI=100, 8 hours, Z-VADFMK 25 μM, VX765 20 μM, NSA 5 μM
Method: Human peripheral blood mononuclear cells (PBMC) were isolated from human buffy coat (provided by Department of Microbiology, The University of Hong Kong, Li Ka Shing Faculty of Medicine) by Ficoll-Paque gradient protocol. In brief, 30 mL of 1:1 PBS diluted buffy coat from healthy donors were layered on Ficoll-Paque Plus (GE Healthcare, Life Sciences) and centrifuged at 450×g for 30 min at room temperature. Separated layers of PBMC were collected and then washed 2 times with RPMI-1640 medium. After washing, the cells were resuspended in 4 mL red blood cell lysing buffer (Biolegend, RBC Lysis Buffer) and incubated for 5 min at room temperature. Following two subsequent washes, the cell pellet was resuspended in RPMI-1640 media supplemented with 10% FBS, 100 U/ml penicillin and 0.1 mg/ml streptomycin for further infection experiments. To differentiate human monocytes-derived macrophages (HMDM), isolated PBMC were seeded on poly-L-lysine coated coverslips in 24 well plate and cultured in RPMI-1640 media supplemented with L-glutamine, 10% FBS, 1×penicillin/streptomycin, 10 mM HEPES, 50 ng/mL hGM-CSF (PeproTech) for up to 7 days differentiation.
One day before bacterial infection experiments, S. aureus strains were inoculated and cultured with BHI broth for overnight. Next day, overnight culture of bacteria strains were sub-cultured in fresh BHI broth at a dilution of 1:100 and grown at 37° C. Following 3 hours of culturing, S. aureus were harvested and washed for two to three times in cold PBS by centrifugation. […] The number of bacteria was determined by serial dilution and colony formation on BHI agar plates. […]
as §2, with “ELISA assay was conducted according manufactures' instructions.” left out

[4] = system: NLRP3; assay: NLRP3 expression in BMDC (qPCR, immunoblot); type: cell-based, mouse; settings: 4 hours
Method: as §1
For detection of cleaved form of caspase-1, cell culture supernatants were precipitated by methanol-chloroform method. Briefly, supernatant was mixed with an equal volume of methanol and 0.25 volumes of chloroform, vortexed and centrifuge for 15 min at 20000 g. The upper phase was discarded and the interphase was mixed with methanol. After centrifugation for 5 min at 20000 g, the pellet was resuspended in 2×SDS-PAGE sample buffer and boiled for 5 min at 100° C. Protein samples were separated by 15% SDS-PAGE gels and were transferred onto PVDF membranes. […]
Total RNA was extracted from cells using TRIzol Reagent (Invitrogen) and 1 μg total RNA was used for reverse transcription (Takara) according to manufactures' instructions. The cDNA was then used for quantitative RT-PCR to analyze relevant mRNA expression using Applied Biosystems StepOnePlus™ Real-Time PCR System and SYBR Premix Ex Taq kit (Takara) according to the manufacturer's instruction. The data were normalized to GAPDH and fold change in gene expression was calculated by comparative CT method (2^−ΔΔCT).

Row | SMILES | IL-1β production/release in S. aureus infected BMDC [1] | Th17 response / IL-17A production vs vehicle control [2] | effect on S. aureus / adsA mutant-induced cell death [3] | also measured
1 | C=C1[C@@H](C)[C@H]2[C@H](Cc3ccccc3)NC(=O)[C@]23[C@H](OC(C)=O)/C=C/[C@@](C)(O)C(=O)[C@@H](C)C/C=C/[C@H]3[C@@H]1O [Cytochalasin D] | nearly suppressed IL-1β production | – | – | IL-1β production/release in S. aureus infected BMDC ([1]; listed as cytochalasin D): had little IL-1β production
2 | CC(C)(O)c1coc(S(=O)(=O)NC(=O)Nc2c3c(cc4c2CCC4)CCC3)c1 [MCC950] | largely dampen IL-1β production; also recorded: almost prevented the release of IL-1β; also recorded: had little IL-1β production | decreased IL-17A production | – | –
3 | CCO[C@@H]1OC(=O)C[C@@H]1NC(=O)[C@@H]1CCCN1C(=O)[C@@H](NC(=O)c1ccc(N)c(Cl)c1)C(C)(C)C [VX765] | – | decreased IL-17A production | dramatically decrease adsA mutant-induced cell death | –
4 | COC(=O)C[C@H](NC(=O)[C@H](C)NC(=O)[C@@H](NC(=O)OCc1ccccc1)C(C)C)C(=O)CF [Z-VAD-FMK] (Cbz-Val-Ala-Asp(OMe)-CH2F) | – | – | dramatically decrease adsA mutant-induced cell death | –
5 | Nc1nc(NCCc2ccc(O)cc2)nc2nc(-c3ccco3)nn12 [ZM241385] | improved IL-1β production | – | – | –
6 | Nc1ncnc2c1ncn2[C@@H]1O[C@H](CO)[C@@H](O)[C@H]1O [adenosine, Adenosine] | – | – | – | inflammasome activation (IL-1β release and immunoblot) in BMDC infected with adsA mutant ([1]; pretreated with adenosine 100 μM): impaired inflammasome activation; expression level of NLRP3 (qPCR) ([4]; BMDC activated by adsA mutant S. aureus or Pam3CSK4 / LPS (100 ng/ml), adenosine 100 μM): decreased the expression level of NLRP3; NLRP3 expression at protein level ([4]; BMDC pre-treated with a series of dose of adenosine, LPS 100 ng/ml): inhibited NLRP3 expression at protein level in a dose-dependent manner
7 | Cn1c(=O)c2c(ncn2C)n(C)c1=O [caffeine, Caffeine] | – | did not have any influence on Th17 immunity | – | –
8 | COc1nccnc1NS(=O)(=O)c1ccc(NC(=O)/C=C/c2ccc([N+](=O)[O-])s2)cc1 [necrosulfonamide, Necrosulfonamide] | – | – | did not have apparent effect on S. aureus induced cytotoxicity | –

Reference: patent US20230390373A1, “A LIVE STRAIN OF STAPHYLOCOCCUS AUREUS AND USES THEREOF” (priority 2020, published 2023)
